Blank lines part the entries; values can stand above or below the compound they belong to.
Legend:
[1] = target: Serine/threonine-protein kinase MRCK alpha (Homo sapiens) (UniProt Q5VT25); test: Selectivity interaction (Ambit KINOMEscan and KiNATiv profiling in Jurkat cells) EUB0000090b CDC42BPA; type: cell-based; settings: at 1 µM
[2] = target: T1, Ephrin type-B receptor 1 (Homo sapiens) (UniProt P54762); test: Selectivity interaction (Kinase panel (Invitrogen)) EUB0000639a EPHB1; settings: at 200 nM
T1 sequence (whole entry): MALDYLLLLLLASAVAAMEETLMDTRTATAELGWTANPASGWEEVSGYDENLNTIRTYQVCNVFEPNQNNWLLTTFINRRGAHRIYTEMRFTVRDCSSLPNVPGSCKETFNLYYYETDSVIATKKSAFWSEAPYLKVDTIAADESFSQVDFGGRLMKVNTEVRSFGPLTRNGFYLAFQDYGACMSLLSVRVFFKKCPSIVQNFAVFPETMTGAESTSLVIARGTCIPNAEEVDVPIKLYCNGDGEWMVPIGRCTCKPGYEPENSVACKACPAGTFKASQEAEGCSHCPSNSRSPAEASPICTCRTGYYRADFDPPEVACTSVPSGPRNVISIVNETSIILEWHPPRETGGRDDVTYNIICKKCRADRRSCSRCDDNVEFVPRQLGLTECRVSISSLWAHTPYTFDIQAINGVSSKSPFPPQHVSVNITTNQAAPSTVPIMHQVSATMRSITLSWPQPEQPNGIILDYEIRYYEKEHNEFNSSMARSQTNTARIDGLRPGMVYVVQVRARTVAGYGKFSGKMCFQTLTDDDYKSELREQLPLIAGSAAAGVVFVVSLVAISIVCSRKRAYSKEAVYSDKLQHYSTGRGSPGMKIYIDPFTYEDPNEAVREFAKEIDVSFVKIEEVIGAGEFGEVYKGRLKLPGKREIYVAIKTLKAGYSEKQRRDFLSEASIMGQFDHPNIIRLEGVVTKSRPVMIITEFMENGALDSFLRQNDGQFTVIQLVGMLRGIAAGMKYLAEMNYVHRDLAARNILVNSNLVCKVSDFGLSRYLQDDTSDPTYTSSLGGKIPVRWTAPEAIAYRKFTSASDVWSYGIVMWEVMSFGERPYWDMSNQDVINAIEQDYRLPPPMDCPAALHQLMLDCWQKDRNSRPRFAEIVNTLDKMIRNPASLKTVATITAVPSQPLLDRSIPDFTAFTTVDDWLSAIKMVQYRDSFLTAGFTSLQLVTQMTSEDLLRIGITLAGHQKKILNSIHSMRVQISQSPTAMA

[3] = target: Phosphatidylinositol 4,5-bisphosphate 3-kinase catalytic subunit beta isoform (Homo sapiens) (UniProt P42338); test: Selectivity interaction (KinomeScan (DiscoverX)) EUB0000229b PIK3CB; settings: at 10 µM
[4] = target: Cyclin-dependent kinase 5 (Homo sapiens, UniProt Q00535); test: Selectivity interaction (KinomeScan (DiscoverX)) EUB0000618a CDK5; settings: at 10 µM
[5] = target: T2, Myosin-IIIb (Homo sapiens) (UniProt Q8WXR4); test: Selectivity interaction (KinomeScan (DiscoverX)) EUB0000618a MYO3B; settings: at 10 µM
T2 sequence (whole entry): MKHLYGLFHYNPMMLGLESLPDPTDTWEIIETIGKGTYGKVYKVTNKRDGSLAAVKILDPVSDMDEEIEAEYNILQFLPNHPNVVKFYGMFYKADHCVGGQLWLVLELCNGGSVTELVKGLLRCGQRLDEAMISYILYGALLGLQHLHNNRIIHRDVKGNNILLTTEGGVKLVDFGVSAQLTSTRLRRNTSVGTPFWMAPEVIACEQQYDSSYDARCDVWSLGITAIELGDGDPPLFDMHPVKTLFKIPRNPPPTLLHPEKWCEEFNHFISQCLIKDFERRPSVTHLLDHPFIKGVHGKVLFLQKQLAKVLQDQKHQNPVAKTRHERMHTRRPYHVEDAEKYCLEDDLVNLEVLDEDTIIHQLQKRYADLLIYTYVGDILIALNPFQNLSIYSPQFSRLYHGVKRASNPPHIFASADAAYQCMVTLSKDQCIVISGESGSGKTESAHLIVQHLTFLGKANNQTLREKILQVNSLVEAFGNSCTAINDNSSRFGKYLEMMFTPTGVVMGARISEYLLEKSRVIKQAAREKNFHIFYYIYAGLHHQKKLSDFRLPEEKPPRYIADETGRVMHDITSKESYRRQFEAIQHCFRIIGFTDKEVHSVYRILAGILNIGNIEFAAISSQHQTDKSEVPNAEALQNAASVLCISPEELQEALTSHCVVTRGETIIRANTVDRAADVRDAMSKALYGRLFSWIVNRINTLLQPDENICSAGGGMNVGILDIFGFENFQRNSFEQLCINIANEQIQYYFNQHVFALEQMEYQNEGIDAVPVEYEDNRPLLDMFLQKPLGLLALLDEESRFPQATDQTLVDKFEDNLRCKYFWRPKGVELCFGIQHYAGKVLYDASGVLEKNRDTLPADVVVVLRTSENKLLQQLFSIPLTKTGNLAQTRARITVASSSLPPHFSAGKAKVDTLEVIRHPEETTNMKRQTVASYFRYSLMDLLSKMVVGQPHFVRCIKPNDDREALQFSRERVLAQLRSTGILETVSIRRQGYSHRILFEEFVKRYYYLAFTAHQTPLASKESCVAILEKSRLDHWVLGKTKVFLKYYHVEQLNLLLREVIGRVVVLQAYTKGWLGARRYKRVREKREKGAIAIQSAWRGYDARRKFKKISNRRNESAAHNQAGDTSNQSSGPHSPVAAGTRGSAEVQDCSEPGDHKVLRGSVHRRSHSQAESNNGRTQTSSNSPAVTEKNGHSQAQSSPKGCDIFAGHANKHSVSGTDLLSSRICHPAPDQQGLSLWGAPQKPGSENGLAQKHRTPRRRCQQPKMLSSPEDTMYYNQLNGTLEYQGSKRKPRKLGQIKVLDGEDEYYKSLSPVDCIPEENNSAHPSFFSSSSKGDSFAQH

Sequence of Phosphatidylinositol 4,5-bisphosphate 3-kinase catalytic subunit beta isoform (Homo sapiens) (P42338 whole entry, looked up, canonical isoform): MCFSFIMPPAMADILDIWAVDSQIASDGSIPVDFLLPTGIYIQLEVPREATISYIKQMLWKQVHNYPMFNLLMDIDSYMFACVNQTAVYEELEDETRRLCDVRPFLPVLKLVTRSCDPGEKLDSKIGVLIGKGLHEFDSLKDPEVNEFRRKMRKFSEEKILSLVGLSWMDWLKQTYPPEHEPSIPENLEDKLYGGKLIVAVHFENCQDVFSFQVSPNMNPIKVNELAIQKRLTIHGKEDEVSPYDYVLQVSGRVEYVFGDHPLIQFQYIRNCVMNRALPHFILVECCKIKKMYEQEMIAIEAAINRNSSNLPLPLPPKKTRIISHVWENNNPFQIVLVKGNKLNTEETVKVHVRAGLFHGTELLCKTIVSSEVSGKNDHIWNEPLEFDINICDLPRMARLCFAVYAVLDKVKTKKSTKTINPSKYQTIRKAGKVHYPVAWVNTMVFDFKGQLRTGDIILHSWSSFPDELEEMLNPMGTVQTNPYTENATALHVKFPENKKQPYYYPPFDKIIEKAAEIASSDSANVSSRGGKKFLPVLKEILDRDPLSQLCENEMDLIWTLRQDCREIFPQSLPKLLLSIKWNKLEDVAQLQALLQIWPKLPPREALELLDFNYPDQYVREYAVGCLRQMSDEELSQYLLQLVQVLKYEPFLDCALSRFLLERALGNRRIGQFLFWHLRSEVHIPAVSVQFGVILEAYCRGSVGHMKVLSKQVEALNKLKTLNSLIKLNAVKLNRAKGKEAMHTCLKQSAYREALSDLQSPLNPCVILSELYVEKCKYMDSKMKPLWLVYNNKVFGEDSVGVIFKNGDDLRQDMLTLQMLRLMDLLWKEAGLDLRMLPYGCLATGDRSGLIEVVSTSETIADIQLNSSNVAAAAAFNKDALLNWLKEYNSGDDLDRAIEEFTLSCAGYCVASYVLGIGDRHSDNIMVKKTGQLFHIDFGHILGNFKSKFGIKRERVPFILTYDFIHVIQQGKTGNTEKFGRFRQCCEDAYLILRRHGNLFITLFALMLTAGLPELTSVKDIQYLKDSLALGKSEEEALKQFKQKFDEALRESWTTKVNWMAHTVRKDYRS
Sequence of Cyclin-dependent kinase 5 (Q00535 whole entry, looked up): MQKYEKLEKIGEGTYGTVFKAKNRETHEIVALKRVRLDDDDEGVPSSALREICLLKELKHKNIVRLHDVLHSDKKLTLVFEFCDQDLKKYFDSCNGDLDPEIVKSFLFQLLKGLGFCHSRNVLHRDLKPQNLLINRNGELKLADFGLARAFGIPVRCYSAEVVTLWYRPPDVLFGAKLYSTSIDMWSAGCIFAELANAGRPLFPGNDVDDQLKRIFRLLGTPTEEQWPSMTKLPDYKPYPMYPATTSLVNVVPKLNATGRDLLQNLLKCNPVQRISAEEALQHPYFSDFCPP
Sequence of Serine/threonine-protein kinase MRCK alpha (Homo sapiens) (Q5VT25 whole entry): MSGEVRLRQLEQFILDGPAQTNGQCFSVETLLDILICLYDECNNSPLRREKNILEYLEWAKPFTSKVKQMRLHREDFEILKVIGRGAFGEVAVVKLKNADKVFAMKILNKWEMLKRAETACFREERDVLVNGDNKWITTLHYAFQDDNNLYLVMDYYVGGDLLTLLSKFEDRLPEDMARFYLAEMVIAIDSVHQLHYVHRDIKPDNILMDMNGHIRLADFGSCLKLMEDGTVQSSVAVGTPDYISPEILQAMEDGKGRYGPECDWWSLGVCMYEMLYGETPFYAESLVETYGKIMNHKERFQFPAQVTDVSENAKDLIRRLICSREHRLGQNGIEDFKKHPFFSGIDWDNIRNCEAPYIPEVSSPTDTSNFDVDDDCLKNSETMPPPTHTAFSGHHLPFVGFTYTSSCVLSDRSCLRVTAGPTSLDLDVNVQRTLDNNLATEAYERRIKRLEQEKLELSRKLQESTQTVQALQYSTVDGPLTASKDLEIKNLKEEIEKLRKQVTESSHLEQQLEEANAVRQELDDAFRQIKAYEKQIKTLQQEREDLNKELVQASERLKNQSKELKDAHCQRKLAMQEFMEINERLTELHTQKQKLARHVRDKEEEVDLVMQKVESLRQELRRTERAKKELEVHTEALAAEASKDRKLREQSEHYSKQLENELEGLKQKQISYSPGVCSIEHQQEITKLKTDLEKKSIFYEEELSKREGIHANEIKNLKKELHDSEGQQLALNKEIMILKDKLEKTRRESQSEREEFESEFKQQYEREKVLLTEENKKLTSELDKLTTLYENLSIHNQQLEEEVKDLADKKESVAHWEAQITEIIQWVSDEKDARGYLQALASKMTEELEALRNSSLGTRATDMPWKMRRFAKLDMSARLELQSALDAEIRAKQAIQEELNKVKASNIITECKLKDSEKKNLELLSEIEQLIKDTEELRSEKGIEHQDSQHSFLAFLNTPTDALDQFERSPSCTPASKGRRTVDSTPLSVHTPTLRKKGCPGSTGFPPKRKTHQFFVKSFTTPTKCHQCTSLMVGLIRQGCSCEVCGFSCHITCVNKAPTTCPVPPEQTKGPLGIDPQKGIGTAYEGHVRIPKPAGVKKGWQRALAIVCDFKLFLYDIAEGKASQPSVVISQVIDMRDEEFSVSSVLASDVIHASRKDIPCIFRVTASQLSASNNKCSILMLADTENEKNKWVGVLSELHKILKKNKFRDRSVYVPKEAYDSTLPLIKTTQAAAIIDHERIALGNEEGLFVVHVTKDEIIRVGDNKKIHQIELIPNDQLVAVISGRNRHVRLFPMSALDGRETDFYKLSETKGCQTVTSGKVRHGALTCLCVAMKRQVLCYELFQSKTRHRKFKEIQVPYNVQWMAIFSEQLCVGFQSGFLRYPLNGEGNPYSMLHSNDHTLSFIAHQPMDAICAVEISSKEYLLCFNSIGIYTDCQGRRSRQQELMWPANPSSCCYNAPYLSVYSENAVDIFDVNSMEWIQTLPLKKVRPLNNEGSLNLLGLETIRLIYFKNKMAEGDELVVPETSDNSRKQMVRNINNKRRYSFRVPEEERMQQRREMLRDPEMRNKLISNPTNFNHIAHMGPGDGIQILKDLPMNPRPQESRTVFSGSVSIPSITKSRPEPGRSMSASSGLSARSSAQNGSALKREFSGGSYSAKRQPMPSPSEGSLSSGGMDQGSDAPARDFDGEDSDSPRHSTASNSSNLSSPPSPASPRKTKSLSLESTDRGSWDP

SMILES: CN(C)C/C=C/C(=O)Nc1ccc(C(=O)N2CCCC(Nc3ncc(Cl)c(-c4c[nH]c5ccccc45)n3)C2)cc1 (stereo not given)
% of control [1]: 86%

% of inhibition [2]: 1.6%
SMILES: CC[C@@H]1[C@H](F)C(=O)N[C@@H]1COc1nccc2cc(C(N)=O)c(OC)cc12 [ZIMLOVISERTIB]

SMILES: COc1cc(N(C)c2ccnc3ccc(C(F)(F)F)cc23)cc(OC)c1OC
% binding [3]: 63%

SMILES: O[C@H]1CC[C@H](Nc2ncc3nc(Nc4c(F)cc(F)cc4F)n([C@H]4CCOC4)c3n2)CC1
% of control [4]: 100%
% of control [5]: 95%
